# Laboratory results as given in patent publication US20080146651A1, “Injectable Composition for the Treatment of Cancers” (priority 2004, published 2008).
# Assay: Stability test of paclitaxel according to varying pH values (HPLC residual percentage)
# Format: physicochemical
# Conditions: for Initial residual percentage (0 hour) / Residual percentage after 24 hours / Residual percentage after 48 hours: 40° C.
# Experimental: Paclitaxel was completely dissolved using glycofurol and Solutol HS15, and was then diluted in a McIlvaine buffer at pH 3˜8. The dilution was allowed to stand at 40° C. After 24 and 48 hours, the residual percentages of paclitaxel were measured by HPLC.
smiles,measurement,setting,value
CC(=O)O[C@H]1C(=O)[C@@]2(C)[C@H]([C@H](OC(=O)c3ccccc3)[C@]3(O)C[C@H](OC(=O)[C@H](O)[C@@H](NC(=O)c4ccccc4)c4ccccc4)C(C)=C1C3(C)C)[C@]1(OC(C)=O)CO[C@@H]1C[C@@H]2O [paclitaxel],residual percentage,"around pH 5, for 48 hours",≥ 99%
same,Initial residual percentage (0 hour),"pH 3, McIlvaine buffer",100%
same,Residual percentage after 24 hours,"pH 3, McIlvaine buffer",99.239%
same,Residual percentage after 48 hours,"pH 3, McIlvaine buffer",97.509%
same,Initial residual percentage (0 hour),"pH 4, McIlvaine buffer",100%
same,Residual percentage after 24 hours,"pH 4, McIlvaine buffer",99.025%
same,Residual percentage after 48 hours,"pH 4, McIlvaine buffer",98.221%
same,stability of paclitaxel with the passage of time,pH 4˜6,stable
same,residual percentage,"pH 4˜6, for 48 hours",≥ 98%
same,Initial residual percentage (0 hour),"pH 5, McIlvaine buffer",100%
same,Residual percentage after 24 hours,"pH 5, McIlvaine buffer",99.414%
same,Residual percentage after 48 hours,"pH 5, McIlvaine buffer",99.292%
same,Initial residual percentage (0 hour),"pH 6, McIlvaine buffer",100%
same,Residual percentage after 24 hours,"pH 6, McIlvaine buffer",98.765%
same,Residual percentage after 48 hours,"pH 6, McIlvaine buffer",98.183%
same,Initial residual percentage (0 hour),"pH 7, McIlvaine buffer",100%
same,Residual percentage after 24 hours,"pH 7, McIlvaine buffer",96.109%
same,Residual percentage after 48 hours,"pH 7, McIlvaine buffer",94.344%
same,Initial residual percentage (0 hour),"pH 8, McIlvaine buffer",100%
same,Residual percentage after 24 hours,"pH 8, McIlvaine buffer",77.297%
same,Residual percentage after 48 hours,"pH 8, McIlvaine buffer",57.38%
